For assay [1], the system named is platelet aggregation induced by PAF. Put plainly: Inhibition of platelet aggregation induced by PAF. The class given is cell-based, New Zealand albino rabbits. As to conditions: Oryctolagus cuniculus; rabbit platelet rich plasma, PAF (C₁₈) 15 nM, Born nephelometric technique; read-out: IC₅₀. On the procedure:
Blood is obtained by cardiac puncture of male New Zealand albino rabbits (b.w. 2-2.5 Kg) and coagulation is prevented by adding 1 part of 3.16% sodium citrate dihydrate in 9 parts of blood. Platelet rich plasma (PRP) is prepared by centrifuging the blood at 250xg for 10 min. at 4°C and then it is diluted with platelet poor plasma (PPP) obtained by further centrifuging at 3000xg for 10 min. The platelet count is adjusted to 3x10⁵/mm³. Platelet aggregation induced by PAF (C₁₈, prepared in our laboratory) (15 nM) is determined by the Born nephelometric technique (J. Physiol., 1962, 162, 67) using an aggregometer Chrono-log 500. The activities of the inhibitors are expressed as the IC₅₀ value, that is to say the concentration of drug needed to inhibit platelet aggregation by 50%.

Assay [2] deals with LTB₄ production by human granulocytes (HL-60 cells). Put plainly: Inhibition of LTB4 production by human granulocytes. The class given is cell-based. As to conditions: differentiated HL-60 cells stimulated by calcium ionophore A23187 (5 x 10⁻⁶M), LTB₄ by EIA, read-out: % inh. of LTB₄ production (at 5 µM). The protocol: Human promyelocytes (HL-60 cells) are grown in a RPMI 1640 medium suplemented with 20% heat-inactivated fetal bovine serum, 50 U/mL penicillin and 50 µg/mL streptomycin under an atmosphere of 5% CO₂ at 37°C. Cells are exposed to 1.3% DMSO for 5 days in order to differentiate them into mature granulocytes and then are washed and resuspended in Dubelcco's phosphate-buffered saline at 10⁶ cells/mL. HL-60 (10⁶ cells/mL) are incubated for 15 min at 37°C in the presence or absence (vehicle only) of test compound. Cells are then stimulated by calcium ionophore A23187 (5 x 10⁻⁶M) for 15 min. LTB₄ secreted into the external medium is measured by EIA (enzymo immunoassay) using a commercially available LTB₄-EIA kit. Results are expressed as the percent inhibition of LTB₄ production as compared to controls.

Each structure is given as a SMILES string.

Consider `Cc1nnc2n1-c1sc3c(c1C(c1ccccc1Cl)=NC2C)CCN(C(=O)c1cccc(OCc2ccc4ccccc4n2)c1)C3` (stereo not drawn) [Compound 1, 6-(2-Chlorophenyl)-1,4-dimethyl-9-[3-(2-quinolylmethoxy)benzoyl]-7,8,9,10-tetrahydro-4H-pyrido[4',3': 4,5]thieno[3,2-f] [1,2,4]triazolo[4,3-a] [1,4]diazepine], for which the IC50 in assay [1] was 32 nM. Further, in assay [2], the inhibition at 5 µM was 72%.
Take `Cc1nnc2n1-c1sc3c(c1C(c1ccccc1Cl)=NC2C)CCN(C(=O)Cc1ccc(OCc2ccc4ccccc4n2)cc1)C3` (stereo not drawn) [Compound 2, 6-(2-Chlorophenyl)-1,4-dimethyl-9-[4-(2-quinolylmethoxy)phenylacetyl]-7,8,9,10-tetrahydro-4H-pyrido[4',3': 4,5]thieno[3,2-f] [1,2,4]triazolo[4,3-a] [1,4]diazepine]: in assay [1], the IC50 stood at 16 nM.

The values are drawn from patent publication EP0624588A1, “New quinoline derivatives with pharmacological activity” (J. URIACH & CIA. S.A., priority 1993, dated 1994).
